US9409905B2, “Antibacterial compounds and methods for use” (PTC THERAPEUTICS, INC., priority 2011, dated 2016)
Converted amounts (≈) assume the structure as drawn.

Legend:
E. coli 25922 = test: Antibacterial activity, microbroth dilution MIC (Table 1); format: cell-based, Escherichia coli; details: Escherichia coli; microbroth dilution; control Gram-negative E. coli 25922 strain; read-out: MIC, 25922
Outline: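 Broth microdilution; endpoint = no macroscopic growth; value = lowest inhibiting concn, μg/mL.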

[1] = test system: Pseudomonas aeruginosa (P. aeruginosa) 27853; test: Antibacterial activity, MIC (Table 5); format: cell-based; details: P. aeruginosa 27853, read-out: MIC, 27853
Outline: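 Values are MICs in μg/mL, read as the lowest concentration at which no growth is visible by eye. They were determined by a microbroth dilution method.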

E. coli LZ3111 = test: Antibacterial activity, MIC, quinolone resistant strain (Table 2); format: cell-based; details: Escherichia coli, LZ3111, read-out: MIC LZ3111
Outline: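 MIC values (μg/mL) came from a microbroth dilution assay, scored as the lowest drug concentration at which no growth was visible by eye.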

[2] = test system: Neisseria meningitidis (N. meningitidis) 13090; test: Antibacterial activity, MIC (Table 8); format: cell-based
From the text: (§1) The antibacterial activity from a microbroth dilution method may be presented as the minimum inhibitory concentration (MIC in μg/mL). The MIC value is the lowest concentration of drug which prevents macroscopically visible growth under test conditions.
(§2) Antibacterial activity of test compounds against the Gram-negative bacteria Haemophilus influenzae (H. influenzae) 49247 is shown in Table 6, Moraxella catarrhalis (M. catarrhalis) 25238 is shown in Table 7 and Neisseria meningitidis (N. meningitidis) 13090 is shown in Table 8.

[3] = test system: Acinetobacter baumannii (A. baumannii) BAA747; test: Antibacterial activity, MIC (Table 4); format: cell-based; details: A. baumannii BAA747, read-out: MIC, BAA747
Outline: (§3)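 Activity was measured by microbroth dilution. The MIC, in μg/mL, is the lowest drug concentration that prevents macroscopically visible growth under the test conditions. The resistant strains are multi-drug resistant clinical isolates.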

[4] = test system: Klebsiella pneumoniae (K. pneumoniae) 35657; test: Antibacterial activity, MIC (Table 4); format: cell-based; details: K. pneumoniae 35657, read-out: MIC, 35657
Outline: as §3

A. baumannii MXX2240 = test: Antibacterial activity, MIC, resistant strain (Table 4); format: cell-based; details: Acinetobacter baumannii, MXX2240; resistant A. baumannii MMX2240, multi-drug resistant clinical isolate; read-out: MIC, MMX2240
Outline: as §3

K. pneumoniae MXX1232 = test: as above; format: cell-based; details: Klebsiella pneumoniae, MXX1232; resistant K. pneumoniae MMX1232, multi-drug resistant clinical isolate; read-out: MIC, MMX1232
Outline: as §3

E. coli ELZ4000 = test: Antibacterial activity, MIC, multi-drug resistant clinical isolate (Table 3); format: cell-based; details: Escherichia coli, ELZ4000, read-out: MIC ELZ4000
Outline: (§4)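 Compounds were serially diluted in broth microdilution format and growth was scored visually; the MIC is the lowest concentration at which no macroscopically visible growth occurred, expressed in μg/mL.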

E. coli ELZ4251 = test: as above; format: cell-based; details: Escherichia coli
Outline: as §4

[5] = test system: Escherichia coli (E. coli) BAS849; test: Antibacterial activity, microbroth dilution MIC (Table 1); format: cell-based; details: microbroth dilution, super sensitive Gram-negative E. coli BAS849, read-out: MIC, BAS849
Outline: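 Microbroth dilution was used. MIC, in μg/mL, is the lowest drug concentration preventing macroscopically visible growth under the test conditions.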

[6] = test system: Staphylococcus aureus (S. aureus) 29213; test: as above; format: cell-based; details: microbroth dilution, Gram-positive S. aureus 29213, read-out: MIC, 29213
Outline: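 Lowest concentration stopping macroscopically visible growth under test conditions, by broth microdilution, defines the MIC (μg/mL).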

[7] = test system: Haemophilus influenzae (H. influenzae) 49247; test: Antibacterial activity, MIC (Table 6); format: cell-based
From the text: as §1, §2

| Structure (SMILES) | MIC (E. coli 25922) [mg/L] | MIC [1] [mg/L] | MIC (E. coli LZ3111) [mg/L] | MIC [2] [mg/L] | MIC [3] [mg/L] | MIC [4] [mg/L] | MIC (A. baumannii MXX2240) [mg/L] | MIC (K. pneumoniae MXX1232) [mg/L] | MIC (E. coli ELZ4000) [mg/L] | MIC (E. coli ELZ4251) [mg/L] | MIC [5] [mg/L] | MIC [6] [mg/L] | MIC [7] [mg/L] |
| --- | --- | --- | --- | --- | --- | --- | --- | --- | --- | --- | --- | --- | --- |
| CCc1cc(C(=O)O)c(=O)[nH]c1-c1ccc2c(c1)cc(CN(C)C)n2C [Cpd 122, 6-(2-((dimethylamino)methyl)-1-methyl-1H-indol-5-yl)-5-ethyl-2-oxo-1,2-dihydropyridine-3-carboxylic acid] | < 1 | 3.5 to 12.5 (≈ 9.9 to 35.4 µM) | 12.5 to 150 (≈ 35.4 to 424 µM) | < 1 | < 1 | < 1 | 12.5 to 150 (≈ 35.4 to 424 µM) | 12.5 to 150 (≈ 35.4 to 424 µM) | 12.5 to 150 (≈ 35.4 to 424 µM) | 12.5 to 150 (≈ 35.4 to 424 µM) | < 1 | 12.5 to 150 (≈ 35.4 to 424 µM) | – |
| CCc1cc(C(=O)O)c(=O)[nH]c1-c1ccc2c(c1)cc(CN1CCCC1)n2C [Cpd 124, 5-ethyl-6-(1-methyl-2-(pyrrolidin-1-ylmethyl)-1H-indol-5-yl)-2-oxo-1,2-dihydropyridine-3-carboxylic acid] | < 1 | 3.5 to 12.5 (≈ 9.22 to 32.9 µM) | 12.5 to 150 (≈ 32.9 to 395 µM) | < 1 | < 1 | 1 to 3.5 (≈ 2.64 to 9.22 µM) | 12.5 to 150 (≈ 32.9 to 395 µM) | 12.5 to 150 (≈ 32.9 to 395 µM) | 12.5 to 150 (≈ 32.9 to 395 µM) | 12.5 to 150 (≈ 32.9 to 395 µM) | < 1 | 12.5 to 150 (≈ 32.9 to 395 µM) | – |
| CCc1c(-c2ccc3c(c2)cc2n3CCC2N2CCCC2)[nH]c(=O)c(C(=O)O)c1O (stereo not drawn) [Cpd 304, 5-ethyl-4-hydroxy-2-oxo-6-(1-(pyrrolidin-1-yl)-2,3-dihydro-1H-pyrrolo[1,2-a]indol-7-yl)-1,2-dihydropyridine-3-carboxylic acid] | < 1 | 12.5 to 150 (≈ 30.7 to 368 µM) | 3.5 to 12.5 (≈ 8.59 to 30.7 µM) | – | 1 to 3.5 (≈ 2.45 to 8.59 µM) | 3.5 to 12.5 (≈ 8.59 to 30.7 µM) | 12.5 to 150 (≈ 30.7 to 368 µM) | 12.5 to 150 (≈ 30.7 to 368 µM) | 12.5 to 150 (≈ 30.7 to 368 µM) | 12.5 to 150 (≈ 30.7 to 368 µM) | < 1 | 12.5 to 150 (≈ 30.7 to 368 µM) | – |
| CCc1cc(C(=O)O)c(=O)[nH]c1-c1ccc2c(ccn2CC)c1 [Cpd 9, 5-ethyl-6-(1-ethyl-1H-indol-5-yl)-2-oxo-1,2-dihydropyridine-3-carboxylic acid] | 1 to 3.5 (≈ 3.22 to 11.3 µM) | – | 12.5 to 150 (≈ 40.3 to 483 µM) | – | – | – | – | – | 12.5 to 150 (≈ 40.3 to 483 µM) | 12.5 to 150 (≈ 40.3 to 483 µM) | < 1 | 12.5 to 150 (≈ 40.3 to 483 µM) | < 1 |
| CCc1cc(C(=O)O)c(=O)[nH]c1-c1ccc2c(c1)cc(CN1CCCC1C)n2C (stereo not drawn) [Cpd 130, 5-ethyl-6-(1-methyl-2-((2-methylpyrrolidin-1-yl)methyl)-1H-indol-5-yl)-2-oxo-1,2-dihydropyridine-3-carboxylic acid] | < 1 | 12.5 to 150 (≈ 31.8 to 381 µM) | 12.5 to 150 (≈ 31.8 to 381 µM) | – | 1 to 3.5 (≈ 2.54 to 8.89 µM) | < 1 | 12.5 to 150 (≈ 31.8 to 381 µM) | 12.5 to 150 (≈ 31.8 to 381 µM) | 12.5 to 150 (≈ 31.8 to 381 µM) | 12.5 to 150 (≈ 31.8 to 381 µM) | < 1 | 12.5 to 150 (≈ 31.8 to 381 µM) | – |
| CCc1cc(C(=O)O)c(=O)[nH]c1-c1ccc2c(c1)cc(CN1CC[C@@H](F)C1)n2C [Cpd 129, (R)-5-ethyl-6-(2-((3-fluoropyrrolidin-1-yl)methyl)-1-methyl-1H-indol-5-yl)-2-oxo-1,2-dihydropyridine-3-carboxylic acid] | < 1 | 12.5 to 150 (≈ 31.5 to 377 µM) | 12.5 to 150 (≈ 31.5 to 377 µM) | – | 3.5 to 12.5 (≈ 8.81 to 31.5 µM) | 1 to 3.5 (≈ 2.52 to 8.81 µM) | 12.5 to 150 (≈ 31.5 to 377 µM) | 12.5 to 150 (≈ 31.5 to 377 µM) | 12.5 to 150 (≈ 31.5 to 377 µM) | 12.5 to 150 (≈ 31.5 to 377 µM) | < 1 | 3.5 to 12.5 (≈ 8.81 to 31.5 µM) | – |
| CCc1cc(C(=O)O)c(=O)[nH]c1-c1ccc2c(c1)cc1n2CCC1N(C)C (stereo not drawn) [Cpd 152, 6-(1-(dimethylamino)-2,3-dihydro-1H-pyrrolo[1,2-a]indol-7-yl)-5-ethyl-2-oxo-1,2-dihydropyridine-3-carboxylic acid] | < 1 | 12.5 to 150 (≈ 34.2 to 410 µM) | 12.5 to 150 (≈ 34.2 to 410 µM) | – | 3.5 to 12.5 (≈ 9.58 to 34.2 µM) | < 1 | 12.5 to 150 (≈ 34.2 to 410 µM) | 12.5 to 150 (≈ 34.2 to 410 µM) | 12.5 to 150 (≈ 34.2 to 410 µM) | 12.5 to 150 (≈ 34.2 to 410 µM) | < 1 | 12.5 to 150 (≈ 34.2 to 410 µM) | – |
| CCc1c(-c2ccc3cc[nH]c3c2)[nH]c(=O)c(C(=O)O)c1O [Cpd 423, 5-ethyl-4-hydroxy-6-(1H-indol-6-yl)-2-oxo-1,2-dihydropyridine-3-carboxylic acid] | < 1 | 3.5 to 12.5 (≈ 11.7 to 41.9 µM) | 1 to 3.5 (≈ 3.35 to 11.7 µM) | < 1 | < 1 | < 1 | 1 to 3.5 (≈ 3.35 to 11.7 µM) | 12.5 to 150 (≈ 41.9 to 503 µM) | 3.5 to 12.5 (≈ 11.7 to 41.9 µM) | 1 to 3.5 (≈ 3.35 to 11.7 µM) | < 1 | 1 to 3.5 (≈ 3.35 to 11.7 µM) | – |
